Patent US20040116420A1 (priority 2001, published 2004)

Legend:
[1] = system: HSV-1; assay: Antiviral activity, HSV-1 in Vero cells, plaque method; type: cell-based; conditions: Human alphaherpesvirus 1, 20 hours, 90% inhibition of plaque formation
Procedure: An Assay Method for Antiviral Activity These complementary assay methods examine the capacity of a compound to inhibit the generation of new viruses and to inhibit the toxicity of the compound against the host cell. Toxicity indirectly decreases the generation of viruses. Thus, it is important to simultaneously conduct both assays in order to directly compare the results. The Vero cells were sown on a 96-well plate and then cultured overnight. The culture supernatant was removed, and 100 μl of 2% FBS-DMEM containing 50,000 plaque-forming units (hereinafter abbreviated as “pfu”) of HSV-1 was added. A viral solution was removed and 200 μl of 2% FBS-DMEM comprising a test compound was added. In this case, a substance to which 2% FBS-DMEM not comprising any test compound had been added was determined as a control. These infected cells were incubated in the presence of 5% CO2 at 37° C. for 20 hours, and the medium was once allowed to freeze at −80° C. The culture solution was dissolved, and the amount of viruses in the culture solution was assayed by the plaque method. The concentration of the test compound when it inhibited 90% of plaque formation relative to the control was determined to be EC 90.

[2] = molecular target: T1, HSV-1 protease (Human herpesvirus 1, UniProt P10210); assay: Enzymatic assay for HSV-1 protease (assembly) inhibitor, fluorescence polarization; type: biochemical; conditions: read-out: HSV-1 Enzyme inhibition IC50
T1 construct: 6xHis (N); made in house; host or cells: baculovirus expression system
T1 sequence (P10210 1-247): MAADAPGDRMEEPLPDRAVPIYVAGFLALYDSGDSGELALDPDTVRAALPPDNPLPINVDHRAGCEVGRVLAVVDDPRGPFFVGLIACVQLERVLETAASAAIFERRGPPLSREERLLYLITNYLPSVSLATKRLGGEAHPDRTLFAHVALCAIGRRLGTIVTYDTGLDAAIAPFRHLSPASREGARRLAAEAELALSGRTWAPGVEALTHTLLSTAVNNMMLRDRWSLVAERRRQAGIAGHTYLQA
Procedure: An enzymatic assay method for an HSV-1 protease (assembly) inhibitor
The activity of an assembly protease was determined by fluorescence polarization. Biotin-gamma-amino butyrate-[…]-DTAF was used as a fluorescent substrate in accordance with an HSV-1 release and cleavage site. […] Changes in the sizes of fluorescent substrate molecules that increased with the use of avidin as a reaction terminator were assayed by fluorescence polarization.
The test compound was dissolved in DMF, and the resultant was diluted 5-fold with an assay buffer. 6.5 μl thereof was added to wells of a 96-well plate (a U-bottomed 96-well plate, Coster) that had previously been blocked with a blocking solution (10 mM Tris-HCl (pH 8.0), 150 mM sodium chloride, 0.05% Tween 20, 1 mg/ml of BSA). The enzyme was diluted to 21.3 μg/ml with an assay buffer (1M sodium citrate, 50 mM sodium phosphate (pH 7.4), 100 mM sodium chloride, 20% glycerol, 2 mM TCEP), and 48.5 μl of the resultant was added to each well. The plate was incubated at room temperature for 30 minutes, and 10 μl of 62.5 μg/ml substrate solution was then added to each well. The plate was incubated at room temperature for 60 minutes, and 50 μl of 2 mg/ml avidin phosphate buffer solution (50 mM sodium phosphate, 100 mM sodium chloride (pH 7.4)) was added to each well. The activity was determined in comparison with a compound without protease inhibitor using a microplate reader for fluorescence polarization.
HSV-1 protease was purified from a vaculovirus that had expressed a DNA construct encoding the reading frame for HSV-1UL26. This construct had further encoded 6 histidine residues at the amino terminus of the protease. These additional histidine residues impart affinity ligands purified by nickel-nitriloacetic acid-agarose (Qiagen). The purified protease was stored as a stock solution for a 20 mM HEPES buffer (pH 8.5, containing 20% v/v glycerin). This stock solution was diluted with an assay buffer and then used in the enzyme reaction.
In accordance with the cleavage specificity of the HSV-1 protease at the “release site” of the assembled protein, a specific substrate was synthesized (Diianni et al., J. Biol. Chem. 268, 2048 (1993)). This assembly protein-release site had the sequence • HTYLQA*SEKFKMW • , and the substrate used was biotin-gamma-amino butyrate-HTYLQA*SERFRIK-DTAF. This is a standard method for peptide synthesis, for example, as in the a method described in “The Practice of Peptide Synthesis” (Bodansky and Bodansky (1984)). The product was stored as a 2.5 mg/ml stock solution in DMF. The resultant was diluted to 62.5 μg/ml with a phosphate buffer (50 mM sodium phosphate, 100 mM sodium chloride, (pH 7.4)) immediately before its use.
An assay buffer (1M sodium citrate, 50 mM sodium phosphate (pH 7.4), 100 mM sodium chloride, 20% glycerol, 2 mM TCEP) was used to dilute a stock solution for the enzyme and that for the inhibitor.

Structure (SMILES)	EC90 [1] [nM]	IC50 [2] [nM]
Cc1c(NC(=O)CCNC(=O)OC(C)(C)C)ccc2nc(NC(C)(C)C(=O)N(C)CCc3ccccn3)oc(=O)c12 [Compound No.201, [2-(5-methyl-2-{1-methyl-1-[methyl-(2-pyridin-2-yl-ethyl)-carbamoyl]-ethylamino}-4-oxo-4H-benzo[d][1,3]oxazin-6-ylcarbamoyl)-ethyl]-carbamic Acid Tert-Butyl Ester]	> 12500	1100
Cc1c(NC(=O)CCNC(=O)OCc2ccccc2)ccc2nc(NC(C)(C)C(=O)N(C)CCc3ccccn3)oc(=O)c12 [Compound No.202, [2-(5-Methyl-2-{1-methyl-1-[methyl-(2-pyridin-2-yl-ethyl)-carbamoyl]-ethylamino}-4-oxo-4H-benzo [d][1,3]oxazin-6-ylcarbamoyl)-ethyl]-carbamic acid benzyl ester]	> 12500	500
Cc1c(NC(=O)CCCNC(=O)OC(C)(C)C)ccc2nc(NC(C)(C)C(=O)N(C)CCc3ccccn3)oc(=O)c12 [Compound No.203, [3-(5-Methyl-2-{1-methyl-1-[methyl-(2-pyridin-2-yl-ethyl)-carbamoyl]-ethylamino}-4-oxo-4H-benzo[d][1,3]oxazin-6-ylcarbamoyl)-propyl]-carbamic acid tert-butyl ester]	> 12500	400
Cc1c(NC(=O)CCCNC(=O)OCc2ccccc2)ccc2nc(NC(C)(C)C(=O)N(C)CCc3ccccn3)oc(=O)c12 [Compound No.204, [3-(5-Methyl-2-{1-methyl-1-[methyl-(2-pyridin-2-yl-ethyl)-carbamoyl]-ethylamino}-4-oxo-4H-benzo[d][1,3]oxazin-6-ylcarbamoyl)-propyl]-carbamic acid benzyl ester]	> 12500	300
Cc1c(NC(=O)CCNC(=O)OC(C)(C)C)ccc2nc(N[C@@H](C)C(=O)N(C)CCc3ccccn3)oc(=O)c12 [Compound No.205, [2-(5-Methyl-2-{1S-[methyl-(2-pyridin-2-yl-ethyl)-carbamoyl]-ethylamino}-4-oxo-4H-benzo[d][1,3]oxazin-6-ylcarbamoyl)-ethyl]-carbamic acid tert-butyl ester]	> 20000	2500
Cc1c(NC(=O)CCNC(=O)OCc2ccccc2)ccc2nc(N[C@@H](C)C(=O)N(C)CCc3ccccn3)oc(=O)c12 [Compound No.206, [2-(5-Methyl-2-{1S-[methyl-(2-pyridin-2-yl-ethyl)-carbamoyl]-ethylamino}-4-oxo-4H-benzo[d][1,3]oxazin-6-ylcarbamoyl)-ethyl]-carbamic acid benzyl ester]	> 12500	1100
Cc1c(NC(=O)CCCNC(=O)OC(C)(C)C)ccc2nc(N[C@@H](C)C(=O)N(C)CCc3ccccn3)oc(=O)c12 [Compound No.207, [3-(5-Methyl-2-{1S-[methyl-(2-pyridin-2-yl-ethyl)-carbamoyl]-ethylamino}-4-oxo-4H-benzo[d][1,3]oxazin-6-ylcarbamoyl)-propyl]-carbamic acid tert-butyl ester]	> 12500	1100
Cc1c(NC(=O)CCCNC(=O)OCc2ccccc2)ccc2nc(N[C@@H](C)C(=O)N(C)CCc3ccccn3)oc(=O)c12 [Compound No.208, [3-(5-Methyl-2-{1S-[methyl-(2-pyridin-2-yl-ethyl)-carbamoyl]-ethylamino}-4-oxo-4H-benzo[d][1,3]oxazin-6-ylcarbamoyl)-propyl]-carbamic acid benzyl ester]	> 12500	200
Cc1c(NC(=O)CCNC(=O)c2cccs2)ccc2nc(NC(C)(C)C(=O)N(C)CCc3ccccn3)oc(=O)c12 [Compound No.209, thiophene-2-carboxylic acid [2-(5-methyl-2-{1-methyl-1-[methyl-(2-pyridin-2-yl-ethyl)-carbamoyl]-ethylamino}-4-oxo-4H-benzo[d][1,3]oxazin-6-ylcarbamoyl)-ethyl]-amide]	> 12500	900
Cc1c(NC(=O)CCNC(=O)c2ccc(C(F)(F)F)cc2)ccc2nc(NC(C)(C)C(=O)N(C)CCc3ccccn3)oc(=O)c12 [Compound No.210, N-[2-(5-Methyl-2-{1-methyl-1-[methyl-(2-pyridin-2-yl-ethyl)-carbamoyl]-ethylamino}-4-oxo-4H-benzo[d][1,3]oxazin-6-ylcarbamoyl)-ethyl]-4-trifluoromethyl-benzamide]	> 12500	700
CCCCc1ccc(C(=O)NCCC(=O)Nc2ccc3nc(NC(C)(C)C(=O)N(C)CCc4ccccn4)oc(=O)c3c2C)cc1 [Compound No.211, 4-Butyl-N-[2-(5-methyl-2-{1-methyl-1-[methyl-(2-pyridin-2-yl-ethyl)-carbamoyl]-ethylamino}-4-oxo-4H-benzo[d][1,3]oxazin-6-ylcarbamoyl)-ethyl]-benzamide]	> 12500	700
Cc1c(NC(=O)CCCNC(=O)c2cccs2)ccc2nc(NC(C)(C)C(=O)N(C)CCc3ccccn3)oc(=O)c12 [Compound No.212, Thiophene-2-carboxylic acid [3-(5-methyl-2-{1-methyl-1-[methyl-(2-pyridin-2-yl-ethyl)-carbamoyl]-ethylamino}-4-oxo-4H-benzo[d][1,3]oxazin-6-ylcarbamoyl)-propyl]-amide]	> 12500	300
Cc1c(NC(=O)CCCNC(=O)c2ccc(C(F)(F)F)cc2)ccc2nc(NC(C)(C)C(=O)N(C)CCc3ccccn3)oc(=O)c12 [Compound No.213, N-[3-(5-Methyl-2-{1-methyl-1-[methyl-(2-pyridin-2-yl-ethyl)-carbamoyl]-ethylamino}-4-oxo-4H-benzo [d][1,3]oxazin-6-ylcarbamoyl)-propyl]-4-trifluoromethyl-benzamide]	> 12500	300
CCCCc1ccc(C(=O)NCCCC(=O)Nc2ccc3nc(NC(C)(C)C(=O)N(C)CCc4ccccn4)oc(=O)c3c2C)cc1 [Compound No.214, 4-Butyl-N-[3-(5-methyl-2-{1-methyl-1-[methyl-(2-pyridin-2-yl-ethyl)-carbamoyl]-ethylamino}-4-oxo-4H-benzo[d][1,3]oxazin-6-ylcarbamoyl)-propyl]-benzamide]	> 12500	300
Cc1c(NC(=O)CCNC(=O)c2cccs2)ccc2nc(N[C@@H](C)C(=O)N(C)CCc3ccccn3)oc(=O)c12 [Compound No.215, Thiophene-2-carboxylic acid [2-(5-methyl-2-{1S-[methyl-(2-pyridin-2-yl-ethyl)-carbamoyl]-ethylamino}-4-oxo-4H-benzo[d][1,3]oxazin-6-ylcarbamoyl)-ethyl]-amide]	> 12500	3200
Cc1c(NC(=O)CCNC(=O)c2ccc(C(F)(F)F)cc2)ccc2nc(N[C@@H](C)C(=O)N(C)CCc3ccccn3)oc(=O)c12 [Compound No.216, N-[2-(5-Methyl-2-{1S-[methyl-(2-pyridin-2-yl-ethyl)-carbamoyl]-ethylamino}-4-oxo-4H-benzo[d][1,3]oxazin-6-ylcarbamoyl)-ethyl]-4-trifluoromethyl-benzamide]	> 12500	3000
CCCCc1ccc(C(=O)NCCC(=O)Nc2ccc3nc(N[C@@H](C)C(=O)N(C)CCc4ccccn4)oc(=O)c3c2C)cc1 [Compound No.217, 4-Butyl-N-[2-(5-methyl-2-{1S-[methyl-(2-pyridin-2-yl-ethyl)-carbamoyl]-ethylamino}-4-oxo-4H-benzo[d][1,3]oxazin-6-ylcarbamoyl)-ethyl]-benzamide]	> 12500	4700
